In patent US20250376461A1, “INDAZOLE DERIVATIVES FOR TREATING TRPM3-MEDIATED DISORDERS” (Katholieke Universiteit Leuven, priority 2022, published 2025) one finds IC50 data, which are given here for 14 compounds.

In the assay the target is T1, mouse TRPM3α2 (mTRPM3) ion channel (Mus musculus, UniProt J9SQF3).
T1 construct: expressed in transfected cells; host or cells: flip-in HEK293
T1 sequence (J9SQF3 1-1709 isoform J9SQF3-12): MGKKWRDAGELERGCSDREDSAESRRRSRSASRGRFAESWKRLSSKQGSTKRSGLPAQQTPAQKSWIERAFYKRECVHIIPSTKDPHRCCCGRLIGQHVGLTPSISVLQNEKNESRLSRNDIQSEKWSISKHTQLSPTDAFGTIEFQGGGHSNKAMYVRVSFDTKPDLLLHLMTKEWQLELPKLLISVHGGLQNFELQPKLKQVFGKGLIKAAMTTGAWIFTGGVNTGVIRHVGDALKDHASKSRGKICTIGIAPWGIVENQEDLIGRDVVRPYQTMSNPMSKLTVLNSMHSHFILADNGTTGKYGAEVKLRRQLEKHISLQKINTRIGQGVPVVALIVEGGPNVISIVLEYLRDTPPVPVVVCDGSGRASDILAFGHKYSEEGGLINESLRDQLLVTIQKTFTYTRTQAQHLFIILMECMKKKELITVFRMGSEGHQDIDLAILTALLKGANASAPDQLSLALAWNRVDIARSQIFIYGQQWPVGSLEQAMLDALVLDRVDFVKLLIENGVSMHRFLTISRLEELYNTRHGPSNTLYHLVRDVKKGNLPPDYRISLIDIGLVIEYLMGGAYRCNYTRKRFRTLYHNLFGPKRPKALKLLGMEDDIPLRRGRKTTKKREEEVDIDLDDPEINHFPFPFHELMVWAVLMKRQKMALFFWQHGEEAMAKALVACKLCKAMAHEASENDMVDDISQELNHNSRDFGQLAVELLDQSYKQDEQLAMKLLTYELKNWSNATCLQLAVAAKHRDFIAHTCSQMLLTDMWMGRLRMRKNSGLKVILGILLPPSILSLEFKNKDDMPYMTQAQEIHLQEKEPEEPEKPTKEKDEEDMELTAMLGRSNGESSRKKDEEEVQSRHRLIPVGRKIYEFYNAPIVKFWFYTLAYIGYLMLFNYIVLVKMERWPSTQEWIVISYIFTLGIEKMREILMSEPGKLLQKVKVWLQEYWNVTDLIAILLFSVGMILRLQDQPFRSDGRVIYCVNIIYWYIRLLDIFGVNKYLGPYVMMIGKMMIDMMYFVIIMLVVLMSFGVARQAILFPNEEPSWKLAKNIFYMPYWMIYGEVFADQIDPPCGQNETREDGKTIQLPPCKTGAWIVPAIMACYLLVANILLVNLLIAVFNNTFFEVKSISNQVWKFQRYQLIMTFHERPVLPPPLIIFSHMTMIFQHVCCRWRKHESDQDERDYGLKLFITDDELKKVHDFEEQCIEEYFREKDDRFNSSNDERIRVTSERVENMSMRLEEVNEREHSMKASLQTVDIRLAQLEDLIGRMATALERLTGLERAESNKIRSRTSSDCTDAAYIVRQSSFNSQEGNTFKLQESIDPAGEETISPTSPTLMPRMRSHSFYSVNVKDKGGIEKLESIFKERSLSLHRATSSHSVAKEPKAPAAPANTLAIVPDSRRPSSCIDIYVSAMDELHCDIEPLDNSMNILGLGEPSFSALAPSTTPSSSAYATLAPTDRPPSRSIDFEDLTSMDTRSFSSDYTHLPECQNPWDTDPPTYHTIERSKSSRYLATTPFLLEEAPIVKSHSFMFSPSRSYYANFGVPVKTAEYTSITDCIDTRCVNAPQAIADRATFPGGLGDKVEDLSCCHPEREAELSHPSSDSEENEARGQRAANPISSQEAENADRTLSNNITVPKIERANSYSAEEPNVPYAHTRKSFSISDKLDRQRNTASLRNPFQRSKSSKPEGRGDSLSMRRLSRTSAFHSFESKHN
In words: TRPM3 ion channel driven Ca2+ uptake, Fluo-4 AM assay, mTRPM3alpha2 overexpressing flip-in HEK293 cells stimulated with pregnenolone sulfate (50 μM). It is filed as cell-based. Particulars: mTRPM3 overexpressing HEK293 cells stimulated with pregnenolone sulfate (50 μM), activity ranges A, B, C. Put shortly: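 Ca2+ influx via mouse TRPM3α2 was opened with pregnenolone sulfate (50 μM) and tracked by Fluo-4 AM fluorescence at 485/535 nm, read directly after adding about 2000 stably transfected HEK293 cells per well to compound. IC50 values come from percent inhibition scaled to vehicle and positive-control inhibitor signals.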
Regarding `Cn1nccc1COc1ccc2nn(C)c(C(=O)NC(C)(C)CO)c2c1` [Cpd 015, N-(1-hydroxy-2-methylpropan-2-yl)-2-methyl-5-[(1-methyl-1H-pyrazol-5-yl)methoxy]-2H-indazole-3-carboxamide], the 50% inhibitory concentration (IC50) (as a rule, the concentration that inhibits the measured activity by half) was 1000 to 20000 nM.
`Cn1nc2ccc(OCc3cccnc3C(F)(F)F)cc2c1C(=O)NC(C)(CO)CO` [Cpd 016, N-(1,3-dihydroxy-2-methylpropan-2-yl)-2-methyl-5-{[2-(trifluoromethyl)pyridin-3-yl]methoxy}-2H-indazole-3-carboxamide] displayed a half-inhibitory concentration (IC50) of under 1000 nM.
The compound `Cn1nc2ccc(OCc3ccccc3)cc2c1C(=O)NC(C)(CO)CO` [Cpd 017, 5-(benzyloxy)-N-(1,3-dihydroxy-2-methylpropan-2-yl)-2-methyl-2H-indazole-3-carboxamide] gave a half-maximal inhibitory concentration (IC50) of 1000 to 20000 nM.
Consider `Cc1ncsc1COc1ccc2nn(C)c(C(=O)Nc3ccn(C)n3)c2c1` [Cpd 018, 2-methyl-5-[(4-methyl-1,3-thiazol-5-yl)methoxy]-N-(1-methyl-1H-pyrazol-3-yl)-2H-indazole-3-carboxamide], for which the IC50 lay in the range of 1000 to 20000 nM.
`Cn1nc2ccc(OCc3cccnc3C(F)(F)F)cc2c1C(=O)NCC(C)(C)CO` [Cpd 019, N-(3-hydroxy-2,2-dimethylpropyl)-2-methyl-5-{[2-(trifluoromethyl)pyridin-3-yl]methoxy}-2H-indazole-3-carboxamide] displayed an IC50 of over 20000 nM.
The figure for `Cn1nc2ccc(OCc3ccccc3)cc2c1C(=O)NCC(C)(C)CO` [Cpd 020, 5-(benzyloxy)-N-(3-hydroxy-2,2-dimethylpropyl)-2-methyl-2H-indazole-3-carboxamide] is 1000 to 20000 nM; for `Cc1ncsc1COc1ccc2nn(C)c(C(=O)NC(C)(CO)CO)c2c1` [Cpd 021, N-(1,3-dihydroxy-2-methylpropan-2-yl)-2-methyl-5-[(4-methyl-1,3-thiazol-5-yl)methoxy]-2H-indazole-3-carboxamide] it is under 1000 nM.
The figure for `Cn1nc2ccc(OCc3cccnc3C(F)(F)F)cc2c1C(=O)NC1(CO)CC1` [Cpd 022, N-[1-(hydroxymethyl)cyclopropyl]-2-methyl-5-{[2-(trifluoromethyl)pyridin-3-yl]methoxy}-2H-indazole-3-carboxamide] is 1000 to 20000 nM; for `Cn1nc2ccc(OCc3ccccc3)cc2c1C(=O)NC(C)(C)CO` [Cpd 023, 5-(benzyloxy)-N-(1-hydroxy-2-methylpropan-2-yl)-2-methyl-2H-indazole-3-carboxamide] it is 1000 to 20000 nM.
The figure for `Cc1ncsc1COc1ccc2nn(C)c(C(=O)NCC(C)(C)CO)c2c1` [Cpd 024, N-(3-hydroxy-2,2-dimethylpropyl)-2-methyl-5-[(4-methyl-1,3-thiazol-5-yl)methoxy]-2H-indazole-3-carboxamide] is 1000 to 20000 nM; for `Cn1nc2ccc(OCc3ccccc3)cc2c1C(=O)NCc1cccc(O)n1` [Cpd 025, 5-(benzyloxy)-N-[(6-hydroxypyridin-2-yl)methyl]-2-methyl-2H-indazole-3-carboxamide] it is under 1000 nM.
For `Cn1nc2ccc(OCc3cccnc3C(F)(F)F)cc2c1C(=O)NC(CO)C(N)=O` (centres unmarked) [Cpd 026, 3-hydroxy-2-[(2-methyl-5-{[2-(trifluoromethyl)pyridin-3-yl]methoxy}-2H-indazol-3-yl)formamido]propanamide], the IC50 was under 1000 nM.
As to `Cn1nccc1COc1ccc2nn(C)c(C(=O)NC(CO)C(N)=O)c2c1` (centres unmarked) [Cpd 027, 3-hydroxy-2-({2-methyl-5-[(1-methyl-1H-pyrazol-5-yl)methoxy]-2H-indazol-3-yl}formamido)propanamide], the IC50 lay in the range of 1000 to 20000 nM.
The figure for `Cn1nc2ccc(OCc3cccnc3C(F)(F)F)cc2c1C(=O)NC1(CO)CCC1` [Cpd 028, N-[1-(hydroxymethyl)cyclobutyl]-2-methyl-5-{[2-(trifluoromethyl)pyridin-3-yl]methoxy}-2H-indazole-3-carboxamide] is 1000 to 20000 nM.
